Test results from patent US11512085B2, “Heteroaryl compound having drug activity” (SHANGHAI DUDE MEDICAL TECHNOLOGY CO., LTD, priority 2017, dated 2022).

What was measured:
Lck = Lck (Homo sapiens, UniProt P06239); assay: Btk selectivity over Lck (same kinase method, Btk replaced); assay type: biochemical; settings: ratio of IC50 values
Method: Other kinases (e.g., inhibitory activity of Lck and LynA is determined by replacing the Btk with various kinases and performing operations the same as that in the above method).

[1] = Rat liver microsome stability test; assay type: in vitro ADME
Method: Preparation of Buffer Solution:
1. 100 mM potassium phosphate buffer solution, pH of 7.4
Preparation of Test Compound Solution:
1. A test compound solution (10 mM, 5 μL) was diluted with a methanol solution (495 μL), and a 100 μM solution was prepared;
2. Preparation of a working solution: the above solution (50 μL) was diluted with the potassium phosphate buffer solution (450 μL, 100 mM) so as to obtain diluents (10 μM).
NADPH Regeneration System (Final Concentration 1 Unit/mL of Isocitrate Dehydrogenase):
1. beta-NADP, supplier: sigma Cat. No. N0505
3. isocitrate dehydrogenase, supplier: sigma Cat. No. 12002
Cold acetonitrile containing 100 ng/mL of tolbutamide and 100 ng/mL of labetalol serves as an internal standard
1. a 10 μL/well of working solution was added into plates (T0, T5, T10, T20, T30, T60, NCF60) beyond the blank;
2. a 80 μL/well of microsome solution was added, and incubation was performed at 37° C. for 10 min;
3. a 10 μL of 100 mM phosphate buffer solution was added into each well of an NCF60 plate, the plate was placed in a warm bath at 37° C., and timing started;
4. a 10 μL/well of NADPH regeneration system was added after preheating, and a reaction started;
5. incubation was performed at 37° C., and timing started
6. a 300 μL/well of stop solution was added (4° C., containing 100 ng/mL of tolbutamide and 100 ng/mL of labetalol) to end the reaction;
7. the plate was shaken for 10 min;
8. centrifugation was performed at 4° C. at a rotation speed of 4000 rpm; and
9. sample LC/MS/MS detection was performed.
Data Analysis Use Equation of First Order Kinetics to Calculate t½ and Clint(Mic): […]
equation of first order kinetics: […]

DOHH-2 = assay: In vitro tumor cell proliferation (CellTiter-Glo), DOHH-2; assay type: cell-based; settings: Homo sapiens, DOHH-2, 72 h; read-out: Growth IC50
Method: (§1) Biological Embodiment 8: Study on Effects of Active Compounds for Inhibiting In Vitro Tumor Cell Proliferation
(§2) Promega CellTiter-Glo cell activity detection kit by luminescence (Promega-G7573).
(§3) Tumor cell lines were cultured in a 5% of CO2 incubator at 37° C. according to respective culture conditions; and periodic passage was performed, and cells positioned in a logarithmic phase were taken for planking.
(§4) 3) 90 μL of cell suspension was added into each well of the culture plate, and a culture solution containing no cell was added into blank control;
(§5) 4) the culture plate was cultured overnight in the 5% of CO2 incubator having relative humidity of 100% at 37° C.
(§6) Preparation of a 400× compound storage plate: the compound was diluted from the maximum concentration gradient to the lowest concentration with DMSO. […]
(§7) The following steps were performed according to the specification of the Promega CellTiter-Glo cell activity detection kit by luminescence (Promega-G7573). […]
(§8) 9) the luminescence signal was detected on the 2104 EnVision plate reader.

Raji = assay: In vitro tumor cell proliferation (CellTiter-Glo), Raji; assay type: cell-based; settings: Homo sapiens, 72 h, read-out: Growth IC50
Method: as §1, §2, §3, §4, §5, §6, §7, §8

Sequence of Lck (P06239 whole entry): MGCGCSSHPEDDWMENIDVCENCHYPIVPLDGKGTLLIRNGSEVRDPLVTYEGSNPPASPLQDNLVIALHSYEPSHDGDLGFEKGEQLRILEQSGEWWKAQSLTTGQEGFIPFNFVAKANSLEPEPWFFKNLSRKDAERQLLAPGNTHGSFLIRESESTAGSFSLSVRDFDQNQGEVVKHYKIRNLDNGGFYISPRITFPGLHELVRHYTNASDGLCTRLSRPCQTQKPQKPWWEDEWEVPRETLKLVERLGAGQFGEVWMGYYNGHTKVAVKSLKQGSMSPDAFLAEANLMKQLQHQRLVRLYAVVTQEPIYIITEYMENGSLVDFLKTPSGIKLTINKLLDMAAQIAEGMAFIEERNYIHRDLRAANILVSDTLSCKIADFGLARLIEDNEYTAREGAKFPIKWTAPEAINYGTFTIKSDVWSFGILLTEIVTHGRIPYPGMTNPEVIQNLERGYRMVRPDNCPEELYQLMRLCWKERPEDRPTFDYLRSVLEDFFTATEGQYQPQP

Structure (SMILES): C=CC(=O)NN1CCCC(n2nc(-c3ccc(Oc4ccccc4)cc3)c3c(N)ncnc32)C1 (centres unmarked) [Embodiment 6, N-(3-(4-amino-3-(4-phenoxyphenyl)-1H-pyrazolo[3,4-D]pyrimidine-1-yl)-1-piperidyl)-acrylamide]
- Lck[IC50]/Btk[IC50] (Lck): 285
- Remaining (*NCF = 60 min) ([1]; RLM 0.5, 60 min, no co-factor): 105.4%
- Remaining (T = 60 min) ([1]; RLM 0.5, 60 min with NADPH regenerating system): 1.1%
- half-life at 1 µM ([1]; rat, liver microsomes, pH 7.4, RLM 0.5 (0.5 mg protein/mL)): 8.9 min
- microsomal CLint at 1 µM ([1]; rat, liver microsomes, pH 7.4, RLM 0.5, read-out: CLint(mic)): 155 µL/min/mg
- CLint scaled at 1 µM ([1]; rat, liver microsomes, pH 7.4, RLM 0.5, scaled from CLint(mic)): 280 mL/min/kg
- IC50 (DOHH-2): < 0.003 µM
- IC50 (Raji): > 10 µM
